This is an account of results in US20150219644A1, “MARKER FOR ACUTE CORONARY SYNDROME, AND USE THEREOF” (RIKEN, priority 2012, published 2015).

Assay [1] has as its system human brain microvascular endothelial cell (BMEC). Nature of the assay: sAPP770 secreted from BMEC detected by APP770 ELISA. The class given is cell-based. The conditions noted are these: culture 16 hr, n=4; for level of sAPP770 secreted from BMEC: cytokine 100 ng/ml. An excerpt:
(A) Brief explanations of APP total ELISA and APP770 ELISA. The recognition sites of a trap antibody (with asterisk) and a detection antibody (without asterisk) in these ELISA systems are shown in the schematic drawing. (B) Western blot analysis. Anti-N terminal APP (22C11) antibody detects full-length APP695, APP751 and APP770 in the lysates of COS cells overexpressing APP695, APP751 and APP770, whereas anti-OX2 antibody used as a trap antibody in APP770 ELISA specifically recognizes APP770. (C) APP total ELISA detects sAPP695, sAPP751 and sAPP770 secreted from COS cells, whereas APP770 ELISA detects only sAPP770. (D) BMEC was cultured for 16 hr in the presence or absence of inflammatory cytokine (TNFα, IL-1β or IL-6; each 100 ng/ml), and sAPP770 secreted from the cells was detected by APP770 ELISA. […] (E) An influence on secretion of sAPP770 from BMEC by culture for 16 hr in the presence of TAPI-0 (10 μM). […] (F) The sAPP770 levels of human serum and human plasma samples are shown in mean±SEM (n=19).
Human APP695-pcDNA3.1, APP751-pcDNA3.1 and APP770-pcDNA3.1 used were those constructed in the previous study (J Biol Chem 285(51):40097-40103 (2010)). Human BMEC (Applied Cell Biology Research Institute) was cultured in CS-C complete medium added with 10% FBS, and used within 4 passages.
Using human sAPP total assay kit (IBL-Japan), sAPP695, sAPP751 and sAPP770 were detected according to the established protocol (http://www.ibl-japan.co.jp). The APP770 ELISA system was established as previously reported (Anal Chim Acta 631(1): 116-120 (2009)). Briefly explained, a 96 well plate was coated with an anti-OX2 antibody, and a horseradish peroxidase-conjugated anti-APP R101A4 antibody was used as a detection antibody. Human CSF (1:16 diluted with dilution buffer contained in kit), plasma and serum (1:75 diluted with dilution buffer contained in kit) were evaluated by APP total ELISA and APP770 ELISA.
(An ELISA detects its analyte on a solid surface through an enzyme-linked reagent.)

Another assay has as its system platelets. Nature of the assay: release of sAPP770 from collagen-stimulated platelets (PRP), APP770 ELISA. It counts as cell-based, human. The conditions noted are these: collagen final concentration 3 μg/ml. As for the experimental part: (A, B) PRP was stirred under stimulation with collagen (final concentration 3 μg/ml). At the time points shown in the Figure, each sample was centrifuged, and supernatant (A) […] and platelet pellet (B) were analyzed by APP770 ELISA. (C) Platelets were washed, stimulated with collagen, centrifuged, and sAPP770 released in the supernatant was analyzed. (D) Schematic drawing showing APP770 and the sites recognized by a series of anti-APP antibodies. (E) After stimulation of platelets with collagen and, at the time points shown in the Figure, the platelet pellets were solubilized, sAPP was pulled down from the platelet release product, and analyzed by western blotting using anti-APP(22C11) antibody, anti-OX2 antibody, anti-APP(C) antibody and anti-KPI antibody. […]
On the day of experiment, blood (16 ml) was collected from healthy human by using a vacuum blood collection tube (NIPRO CORPORATION) containing 3.8% sodium citrate. […] The obtained cell lysate was evaluated by ELISA and Western blot analysis.
Using human sAPP total assay kit (IBL-Japan), sAPP695, sAPP751 and sAPP770 were detected according to the established protocol (http://www.ibl-japan.co.jp). […] Human CSF (1:16 diluted with dilution buffer contained in kit), plasma and serum (1:75 diluted with dilution buffer contained in kit) were evaluated by APP total ELISA and APP770 ELISA.

Turning to “IL-6: recombinant human inflammatory cytokine from R&D Systems”, the “level of sAPP770 secreted from BMEC” value in assay [1] is on record as “did not increase”.

TNFα: the “level of sAPP770 secreted from BMEC” value in assay [1] was “significantly increased only slightly”.

As for `CC(C)C[C@H](CC(=O)NO)C(=O)N[C@@H](Cc1ccc2ccccc2c1)C(=O)N[C@@H](C)C(N)=O` [TAPI-0], in assay [1] (TAPI-0 10 μM), the “secretion of sAPP770 from BMEC” value was “partially inhibited”.

Regarding “IL-1β: recombinant human inflammatory cytokine from R&D Systems”, in assay [1], the “level of sAPP770 secreted from BMEC” value is reported as “significantly increased only slightly”.

As to collagen, the “level of sAPP770 in the platelet precipitate” value in the assay with platelets (after stimulation) is “decreased remarkably”. The “level of sAPP770 in the PRP supernatant” value in the assay with platelets (one minute after stimulation) is “increased rapidly”.
